{"source": "patent US6506550B1", "about": "“Method of including apoptosis by reducing the level of thiamin” (Brandeis University, priority 1997, dated 2003)", "key": {"[1]": {"system": "rat glioma C6 cells", "assay": "Induction of apoptosis in rat glioma C6 cells", "assay_type": "cell-based", "conditions": "for concentration active in inducing apoptosis: in vitro"}, "[2]": {"system": "advanced ovarian cancer", "conditions": "cited from earlier work"}, "[3]": {"conditions": "room temperature; cited from earlier work"}, "[4]": {"system": "mice", "conditions": "cited from earlier work"}, "[5]": {"conditions": "extremely high doses; cited from earlier work"}, "[6]": {"conditions": "cited from earlier work"}, "[7]": {"conditions": "in vivo; cited from earlier work"}, "[8]": {"system": "Walker's sarcoma", "conditions": "rats; cited from earlier work"}, "[9]": {"conditions": "estimated (Woolley and White, 1943); cited from earlier work"}}, "note": "“Also recorded” adds a separate entry of the source. Like-named read-outs stand apart in the source and are kept apart here."}
{"smiles": "CCCc1ncc(C[n+]2ccccc2C)c(N)n1", "note": "[Amprolium]", "values": [{"measurement": "concentration active in inducing apoptosis", "setting": "[1]", "result": "≥ 0.6", "unit": "mM"}]}
{"smiles": "N.N.[Cl][Pt][Cl]", "note": "[cisplatin]", "values": [{"measurement": "survival", "setting": "[2]; intraperitoneal injection", "result": 49, "unit": "months"}, {"measurement": "survival", "setting": "[2]; intravenous injection", "result": 41, "unit": "months"}]}
{"smiles": "Cc1nc(N)cc(Cl)n1", "note": "[CMP, 4-Amino-6-chloro-2-methylpyrimidine]", "values": [{"measurement": "induction of apoptosis by Naegleria agent pretreated with CMP", "setting": "[1]; CMP 2.5, 5, 10 mM, 16 h 25 °C, extract diluted to 10^−5, assay day 6 (FIG. 3)", "result": "prevented the induction of apoptosis; also recorded: did not induce apoptosis"}]}
{"smiles": "Cc1ncc(C[n+]2csc(CCO)c2C)c(N)n1", "note": "[thiamin]", "values": [{"measurement": "excess thiamin concentration that prevented induction of apoptosis by freshly added agent", "setting": "[1]; Naegleria agent at dilution 10^−5, control medium 199", "result": "0.5-2 mg per liter"}, {"measurement": "pH at which the methylene bridge is easily cleaved", "setting": "[3]", "result": "≥ 9", "unit": "pH"}, {"measurement": "time to improvement after thiamin", "setting": "[4]; mice that could no longer stand upright", "result": "one"}, {"measurement": "time to no discernible symptoms after thiamin", "setting": "[4]; mouse, in vivo", "result": "≤ 20", "unit": "h"}, {"measurement": "blood level causing respiratory paralysis", "setting": "[5]", "result": "≥ 70 mg of thiamin per liter of blood"}, {"measurement": "half-life in the body", "setting": "[6]; in vivo", "result": "220 to 432", "unit": "h"}, {"measurement": "oral amount above which thiamin is not absorbed", "setting": "[6]; oral, humans, excess excreted in urine and feces", "result": "3-10 mg per dose"}]}
{"smiles": "Cc1ncc(C[n+]2csc(CCO)c2C)c(=O)[nH]1", "note": "[oxythiamin]", "values": [{"measurement": "passage of the blood-brain barrier", "setting": "[7]", "result": "do not pass"}, {"measurement": "decrease in growth of Walker's sarcoma", "setting": "[8]", "result": 45, "unit": "%"}]}
{"smiles": "Cc1ncc(C[n+]2cccc(CCO)c2C)c(N)n1", "note": "[pyrithiamin]", "values": [{"measurement": "molecules required to nullify one molecule of thiamin", "setting": "[9]", "result": "about 40 molecules"}, {"measurement": "concentration active in inducing apoptosis", "setting": "[1]", "result": "≥ 0.01", "unit": "mM"}, {"measurement": "passage of the blood-brain barrier", "setting": "[7]", "result": "does"}]}
